Assay [1] deals with phosphorylation of Cdc2 Y15 (Wee1 substrate) in A427 cells. Description: Phosphorylated Cdc2 MSD Electrochemiluminescence Assay. The assay is classed as cell-based. As to conditions: Homo sapiens, A-427, class symbols, read-out: A427 pCDC2 MSD IC50. A digest of the protocol:
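A427 cells (RPMI 1640, 10% FBS) treated 20 h after plating with 3-fold serial compound dilutions, in duplicate, 37 °C, 5% CO2; total incubation 6 h. Lysate Cdc2 pY15 read by MSD electrochemiluminescence sandwich immunoassay; % remaining signal normalised to DMSO (high) and reference Wee1 inhibitor (low) controls.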

The target in assay [2] is T1, Wee1 kinase domain (Homo sapiens, UniProt P30291).
T1 construct: Wee1 kinase domain was purchased from Carna (catalog #05-177); purchased Carna 05-177
T1 sequence (P30291 299-569 limits assumed): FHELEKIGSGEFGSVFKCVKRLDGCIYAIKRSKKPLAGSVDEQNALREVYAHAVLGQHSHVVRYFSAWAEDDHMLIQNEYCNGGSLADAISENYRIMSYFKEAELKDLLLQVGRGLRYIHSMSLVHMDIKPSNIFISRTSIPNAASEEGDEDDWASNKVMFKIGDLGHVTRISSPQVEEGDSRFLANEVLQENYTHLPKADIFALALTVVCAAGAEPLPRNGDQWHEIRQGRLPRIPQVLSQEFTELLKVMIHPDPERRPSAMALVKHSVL
Nature of the assay: Wee1 Kinase Biochemical Assay (ADP-Glo). As to conditions: class symbols; 1 nM Wee1 enzyme, 15 uM ATP, 4 hours at 25° C. A digest of the protocol: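 Kinase domain (1 nM) incubated 4 h at 25 °C with 15 uM ATP and 2 ng/mL Poly(Lys,Tyr 4:1) in 40 mM Tris-HCl, 20 mM MgCl2, 0.1 mg/mL BSA, 2 mM DTT. ADP formation read by ADP-Glo luminescence; percent inhibition normalized to DMSO and saturating reference-inhibitor controls.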

Usually IC50 stands for the concentration that inhibits the measured activity by half.

As for `CN1C[C@@H]2C[C@H]1CN2c1ccc(Nc2ncc3c(n2)N(c2cccc(C(C)(C)O)n2)[C@@H]2CC(C)(C)OC[C@]32C)cc1` (single isomer, unassigned) [Example 416], the IC50 in assay [1] is 100 to 1000 nM; in assay [2], < 10 nM.
In the same order, the values of `CC1(C)C[C@@H]2N(c3cccc(C(C)(C)O)n3)c3nc(Nc4ccc(O[C@@H]5CCNC5)cc4)ncc3[C@]2(C)CO1` (single isomer, unassigned) [Example 417] are < 100 nM and < 10 nM.
Take `CC1(C)C[C@H]2N(c3cccc(C(C)(C)O)n3)c3nc(Nc4ccc(O[C@H]5CCNC5)cc4)ncc3[C@@]2(C)CO1` (single isomer, unassigned) [Example 419]: the figures for the IC50 in assay [1] and in assay [2] were < 100 nM and < 10 nM, respectively.
On the same counts, the results for `CN1CC[C@H](Oc2ccc(Nc3ncc4c(n3)N(c3cccc(C(C)(C)O)n3)[C@@H]3CC(C)(C)OC[C@]43C)cc2)C1` (single isomer, unassigned) [Example 421] are < 100 nM and < 10 nM.
In the same order, the values of `Cc1cc(Nc2ncc3c(n2)N(c2cccc(C(C)(C)O)n2)[C@@H]2CC(C)(C)OC[C@]32C)ccc1N1C[C@H]2C[C@@H]1CN2C` (single isomer, unassigned) [Example 425] are 100 to 1000 nM and < 10 nM.
Consider `CN1C[C@H]2C[C@@H]1CN2c1ccc(Nc2ncc3c(n2)N(c2cccc(C(C)(C)O)n2)[C@@H]2CC(C)(C)OC[C@]32C)cc1F` (single isomer, unassigned) [Example 427], for which the IC50 in assay [1] is 100 to 1000 nM; in assay [2] it was < 10 nM.
In the case of `Cc1cc(Nc2ncc3c(n2)N(c2cccc(C(C)(C)O)n2)[C@@H]2CC(C)(C)OC[C@]32C)ccc1N1C[C@@H]2C[C@H]1CN2C` (single isomer, unassigned) [Example 429], the IC50 in assay [1] was 100 to 1000 nM; in assay [2] it was < 10 nM.
Take `CN1C[C@@H]2C[C@H]1CN2c1ccc(Nc2ncc3c(n2)N(c2cccc(C(C)(C)O)n2)[C@@H]2CC(C)(C)OC[C@]32C)cc1F` (single isomer, unassigned) [Example 431]: the 50% inhibitory concentration (IC50) is 100 to 1000 nM in assay [1] and < 10 nM in assay [2].
In the same order, the values of `CN1C[C@H]2C[C@@H]1CN2c1ccc(Nc2ncc3c(n2)N(c2cccc(C(C)(C)O)n2)[C@@H]2CC(C)(C)OC[C@]32C)cc1Cl` (single isomer, unassigned) [Example 433] are 100 to 1000 nM and < 10 nM.
For `CN1C[C@@H]2C[C@H]1CN2c1ccc(Nc2ncc3c(n2)N(c2cccc(C(C)(C)O)n2)[C@@H]2CC(C)(C)OC[C@]32C)cc1Cl` (single isomer, unassigned) [Example 435], the IC50 was 100 to 1000 nM in assay [1] and < 10 nM in assay [2].
On to `CN1CC[C@@H]2CN(c3ccc(Nc4ncc5c(n4)N(c4cccc(C(C)(C)O)n4)[C@@H]4CC(C)(C)OC[C@]54C)cc3)C[C@@H]21` (single isomer, unassigned) [Example 437], for which the IC50 was 100 to 1000 nM in assay [1] and < 10 nM in assay [2].
On the same counts, the results for `CN1CC[C@H]2CN(c3ccc(Nc4ncc5c(n4)N(c4cccc(C(C)(C)O)n4)[C@@H]4CC(C)(C)OC[C@]54C)cc3)C[C@H]21` (single isomer, unassigned) [Example 439] are 100 to 1000 nM and < 10 nM.
On the same counts, the results for `CN1[C@@H]2C[C@H]1CN(c1ccc(Nc3ncc4c(n3)N(c3cccc(C(C)(C)O)n3)[C@@H]3CC(C)(C)OC[C@]43C)cc1)C2` (single isomer, unassigned) [Example 441] are 100 to 1000 nM and < 10 nM.
In the same order, the values of `CN1CC2(C1)CN(c1ccc(Nc3ncc4c(n3)N(c3cccc(C(C)(C)O)n3)[C@@H]3CC(C)(C)OC[C@]43C)cc1)C2` (single isomer, unassigned) [Example 443] are 100 to 1000 nM and < 10 nM.
Regarding `CN1C[C@@H]2CN(c3ccc(Nc4ncc5c(n4)N(c4cccc(C(C)(C)O)n4)[C@@H]4CC(C)(C)OC[C@]54C)cc3)C[C@@H]2C1` (single isomer, unassigned) [Example 446], the IC50 was 100 to 1000 nM in assay [1] and < 10 nM in assay [2].
For the compound `CNCc1cccc(N2c3nc(Nc4ccc(N5CCN(C)CC5)c(C)c4)ncc3[C@@]3(C)COC(C)(C)C[C@@H]23)n1` (single isomer, unassigned) [Example 448], the IC50 is 100 to 1000 nM in assay [1] and < 10 nM in assay [2].
With `CNCc1cccc(N2c3nc(Nc4ccc(N5CCN(C)C(=O)C5)cc4)ncc3[C@@]3(C)COC(C)(C)C[C@@H]23)n1` (single isomer, unassigned) [Example 450], the IC50 in assay [1] is 100 to 1000 nM; in assay [2] it was < 10 nM.
On the same counts, the results for `CNCc1cccc(N2c3nc(Nc4ccc([C@H]5CCNC5)cc4)ncc3[C@@]3(C)COC(C)(C)C[C@@H]23)n1` (single isomer, unassigned) [Example 452] are 100 to 1000 nM and < 10 nM.
Turning to `CNCc1cccc(N2c3nc(Nc4ccc([C@@H]5CCNC5)cc4)ncc3[C@@]3(C)COC(C)(C)C[C@@H]23)n1` (single isomer, unassigned) [Example 454], the values for the IC50 in assay [1] and in assay [2] were 100 to 1000 nM and < 10 nM, respectively.
In the case of `CNCc1cccc(N2c3nc(Nc4ccc(C(C)(C)C(=O)O)cc4)ncc3[C@@]3(C)COC(C)(C)C[C@@H]23)n1` (single isomer, unassigned) [Example 458], the IC50 in assay [1] was 1000 to 10000 nM; in assay [2] it was < 10 nM.
On the same counts, the results for `CNCc1cccc(N2c3nc(Nc4ccc(-c5cnn(C)c5)nc4)ncc3[C@@]3(C)COC(C)(C)C[C@@H]23)n1` (single isomer, unassigned) [Example 460] are 100 to 1000 nM and < 10 nM.
In the same order, the values of `CNCc1cccc(N2c3nc(Nc4ccc(-c5cnn(C)c5)c(C)c4)ncc3[C@@]3(C)COC(C)(C)C[C@@H]23)n1` (single isomer, unassigned) [Example 464] are 100 to 1000 nM and < 10 nM.
On the same counts, the results for `CNCc1cccc(N2c3nc(Nc4ccc(-n5ccnc5)c(F)c4)ncc3[C@@]3(C)COC(C)(C)C[C@@H]23)n1` (single isomer, unassigned) [Example 466] are 1000 to 10000 nM and < 10 nM.
On to `CNCc1cccc(N2c3nc(Nc4ccc(-n5ccnc5)nc4)ncc3[C@@]3(C)COC(C)(C)C[C@@H]23)n1` (single isomer, unassigned) [Example 468], for which the IC50 is 1000 to 10000 nM in assay [1] and < 10 nM in assay [2].
For the compound `CNCc1cccc(N2c3nc(Nc4cccc(N5CCOCC5)c4)ncc3[C@@]3(C)COC(C)(C)C[C@@H]23)n1` (single isomer, unassigned) [Example 470], the IC50 in assay [1] was 100 to 1000 nM; in assay [2], < 10 nM.
As to `CNCc1cccc(N2c3nc(Nc4cnn(C)c4)ncc3[C@@]3(C)COC(C)(C)C[C@@H]23)n1` (single isomer, unassigned) [Example 472], the 50% inhibitory concentration (IC50) in assay [1] is 100 to 1000 nM; in assay [2], < 10 nM.
In the same order, the values of `CNCc1cccc(N2c3nc(Nc4ccc(N5CCOC[C@H]5C)cc4)ncc3[C@@]3(C)COC(C)(C)C[C@@H]23)n1` (single isomer, unassigned) [Example 473] are 100 to 1000 nM and < 10 nM.
On to `CNCc1cccc(N2c3nc(Nc4ccc(N5CCOC[C@@H]5C)cc4)ncc3[C@@]3(C)COC(C)(C)C[C@@H]23)n1` (single isomer, unassigned) [Example 476], for which the IC50 was 100 to 1000 nM in assay [1] and < 10 nM in assay [2].
In the case of `CNCc1cccc(N2c3nc(Nc4ccc(N5[C@@H]6COC[C@H]5C6)cc4)ncc3[C@@]3(C)COC(C)(C)C[C@@H]23)n1` (single isomer, unassigned) [Example 479], the IC50 in assay [1] is 100 to 1000 nM; in assay [2] it was < 10 nM.
On the same counts, the results for `CNCc1cccc(N2c3nc(Nc4ccc(N5C[C@H]6C[C@@H](C5)O6)cc4)ncc3[C@@]3(C)COC(C)(C)C[C@@H]23)n1` (single isomer, unassigned) [Example 481] are 100 to 1000 nM and < 10 nM.
On the same counts, the results for `CN1CCN(c2cncc(Nc3ncc4c(n3)N(c3cccc(N=S(C)(C)=O)n3)[C@@H]3CC(C)(C)OC[C@]43C)c2)CC1` (single isomer, unassigned) [Example 483] are < 100 nM and < 10 nM.
Consider `Cn1cc(Nc2ncc3c(n2)N(c2cccc(N=S(C)(C)=O)n2)[C@@H]2CC(C)(C)OC[C@]32C)cn1` (single isomer, unassigned) [Example 484], for which the results for the IC50 in assay [1] and in assay [2] were < 100 nM and < 10 nM, respectively.
On the same counts, the results for `CN1CCC(c2cncc(Nc3ncc4c(n3)N(c3cccc(N=S(C)(C)=O)n3)[C@@H]3CC(C)(C)OC[C@]43C)c2)CC1` (single isomer, unassigned) [Example 485] are 100 to 1000 nM and < 10 nM.
Turning to `CN1CCN(c2cccc(Nc3ncc4c(n3)N(c3cccc(N=S(C)(C)=O)n3)[C@@H]3CC(C)(C)OC[C@]43C)c2)CC1` (single isomer, unassigned) [Example 486], the IC50 in assay [1] is < 100 nM; in assay [2] it was < 10 nM.
In the same order, the values of `CC1(C)C[C@H]2N(c3cccc(N=S(C)(C)=O)n3)c3nc(Nc4cnn(C(F)F)c4)ncc3[C@@]2(C)CO1` (single isomer, unassigned) [Example 487] are 100 to 1000 nM and < 10 nM.
On the same counts, the results for `CC1(C)C[C@H]2N(c3cccc(N=S(C)(C)=O)n3)c3nc(Nc4cnn(C(F)(F)F)c4)ncc3[C@@]2(C)CO1` (single isomer, unassigned) [Example 488] are 100 to 1000 nM and < 10 nM.

The values are drawn from patent US20260166039A1 (SCHRÖDINGER, INC., priority 2022, published 2026).
